The results in this text go back to publication PMC10581193 (Microbiology Spectrum, 2023).

The subject of the assay is M. tuberculosis H37Ra. In words: microbe, parasite or virus in culture. The format is cell-based, Mycobacterium tuberculosis. Particulars: for MIC: Mycobacterium tuberculosis, H37RA, read-out: MIC against H37Ra.

Values after ≈ are worked out from the molar mass of the structure shown. Where only a bound is given, the exact number is not on record here.

In the case of `COc1ncnc(Cn2ccc3c(C(=O)NCC(F)F)cc(Br)cc32)c1C` [A4, 6-bromo-N-(2,2-difluoroethyl)-1-((6-methoxy-5-methylpyrimidin-4-yl)methyl)-1H-indole-4-carboxamide], the “MIC against H37Ra” value was determined as 0.5 and the MIC is 0.5 µg/mL (≈ 1.14 µM).

With `Cc1nc(C)c(Cn2ccc3c(C(=O)NCC(F)F)cc(Br)cc32)nc1C` [A3, 6-bromo-N-(2,2-difluoroethyl)-1-((3,5,6-trimethylpyrazin-2-yl)methyl)-1H-indole-4-carboxamide], the MIC is more than 6.25 µg/mL.

In the case of `COc1ccc(CN2CCOc3c(C(=O)NCC(F)(F)F)cc(C4CC4)cc32)cc1F` [B24, 6-cyclopropyl-4-(3-fluoro-4-methoxybenzyl)-N-(2,2,2-trifluoroethyl)-3,4-dihydro-2H-benzo[b][1,4]oxazine-8-carboxamide], the MIC is more than 25 µg/mL.

Turning to `Cc1nc(C)c(CN2CCOc3c(C(=O)NCCO)cc(C4CC4)cc32)nc1C` [B19, 6-cyclopropyl-N-(2-hydroxyethyl)-4-((3,5,6-trimethylpyrazin-2-yl)methyl)-3,4-dihydro-2H-benzo[b][1,4]oxazine-8-carboxamide], the MIC was more than 100 µg/mL.

As for `Cc1cc(C)cc(CN2CCOc3c(C(=O)NCC(F)(F)F)cc(C4CC4)cc32)c1` [B22, 6-cyclopropyl-4-(3,5-dimethylbenzyl)-N-(2,2,2-trifluoroethyl)-3,4-dihydro-2H-benzo[b][1,4]oxazine-8-carboxamide], the MIC was more than 25 µg/mL.

Consider `Cc1cc(C(=O)NCC(F)F)c2ccn(Cc3nc(C)c(C)nc3C)c2c1` [A8, N-(2,2-difluoroethyl)-6-methyl-1-((3,5,6-trimethylpyrazin-2-yl)methyl)-1H-indole-4-carboxamide], for which the MIC was more than 6.25 µg/mL.

Turning to `COc1ccc(F)c(F)c1Cn1ccc2c(C(=O)NCC(F)F)cc(C)cc21` [A7, 1-(2,3-difluoro-6-methoxybenzyl)-N-(2,2-difluoroethyl)-6-methyl-1H-indole-4-carboxamide], the MIC was more than 6.25 µg/mL.

As to `Cc1cc(C(=O)NC2CCCCC2)c2c(c1)N(Cc1nc(C)c(C)nc1C)CCO2` [B16, N-cyclohexyl-6-methyl-4-((3,5,6-trimethylpyrazin-2-yl)methyl)-3,4-dihydro-2H-benzo[b][1,4]oxazine-8-carboxamide], the MIC was less than 0.78 µg/mL.

Regarding `Cc1cc(C(=O)NC2CC2)c2c(c1)N(Cc1nc(C)c(C)nc1C)CCO2` [B14, N-cyclopropyl-6-methyl-4-((3,5,6-trimethylpyrazin-2-yl)methyl)-3,4-dihydro-2H-benzo[b][1,4]oxazine-8-carboxamide], the MIC stood at 50 µg/mL (≈ 136 µM).

With `COc1ccc(F)c(F)c1CN1CCOc2c(C(=O)NCCF)cc(Br)cc21` [B6, 6-bromo-4-(2,3-difluoro-6-methoxybenzyl)-N-(2-fluoroethyl)-3,4-dihydro-2H-benzo[b][1,4]oxazine-8-carboxamide], the MIC was more than 100 µg/mL.

For the compound `Cc1cc(C(=O)NCC(F)(F)F)c2c(c1)N(Cc1nc(C)c(C)nc1C)CCO2` [B12, 6-methyl-N-(2,2,2-trifluoroethyl)-4-((3,5,6-trimethylpyrazin-2-yl)methyl)-3,4-dihydro-2H-benzo[b][1,4]oxazine-8-carboxamide], the “MIC against H37Ra” value was not below 100 and the MIC worked out at 100 µg/mL (≈ 245 µM).

Regarding `COc1ccc(F)c(F)c1CN1CCOc2c(C(=O)NCCO)cc(Br)cc21` [B8, 6-bromo-4-(2,3-difluoro-6-methoxybenzyl)-N-(2-hydroxyethyl)-3,4-dihydro-2H-benzo[b][1,4]oxazine-8-carboxamide], the MIC was more than 100 µg/mL.

Take “6-bromo-N-(2-fluoroethyl)−4-((3,5,6-trimethylpyrazin-2-yl)methyl)−3,4-dihydro-2H-benzo[2, 4]oxazine-8-carboxamide [B1]”: the “MIC against H37Ra” value turned out to be 6.25 µg/mL.

Take `COC(=O)c1cccc(CN2CCOc3c(C(=O)NCC(F)(F)F)cc(C4CC4)cc32)c1` [B25, methyl 3-((6-cyclopropyl-8-((2,2,2-trifluoroethyl)carbamoyl)-2,3-dihydro-4H-benzo[b][1,4]oxazin-4-yl)methyl)benzoate]: the MIC was more than 25 µg/mL.

`COc1ccc(F)c(F)c1Cn1ccc2c(C(=O)NCC(F)F)cc(Br)cc21` [A2, 6-bromo-1-(2,3-difluoro-6-methoxybenzyl)-N-(2,2-difluoroethyl)-1H-indole-4-carboxamide]: the MIC is more than 6.25 µg/mL.

For `COc1ccc(F)c(F)c1Cn1ccc2c(C(=O)NCCF)cc(C)cc21` [A6], the MIC is more than 6.25 µg/mL.

For `Cc1nc(C)c(CN2CCOc3c(C(=O)NCC(F)F)cc(C4CC4)cc32)nc1C` [B17, 6-cyclopropyl-N-(2,2-difluoroethyl)-4-((3,5,6-trimethylpyrazin-2-yl)methyl)-3,4-dihydro-2H-benzo[b][1,4]oxazine-8-carboxamide], the MIC came out at 0.6 µg/mL (≈ 1.44 µM).

As to `Cc1nc(C)c(CN2CCOc3c(C(=O)N(C)CC(F)(F)F)cc(C4CC4)cc32)nc1C` [B34, 6-cyclopropyl-N-methyl-n-(2,2,2-trifluoroethyl)-4-((3,5,6-trimethylpyrazin-2-yl)methyl)-3,4-dihydro-2H-benzo[b][1,4]oxazine-8-carboxamide], the MIC was more than 25 µg/mL.

With `COc1ncc(C(F)(F)F)cc1Cn1ccc2c(C(=O)NCC(F)F)cc(Br)cc21` [A5, 6-bromo-N-(2,2-difluoroethyl)-1-((2-methoxy-5-(trifluoromethyl)pyridin-3-yl)methyl)-1H-indole-4-carboxamide], the MIC is more than 6.25 µg/mL.

For “6-bromo-N-(2-hydroxyethyl)-4-((2-methoxy-5-(trifluoromethyl)pyridin-3-yl)methyl)-3,4-dihydro-2H-benzo[2, 4]oxazine-8-carboxamide [B4]”, the “MIC against H37Ra” value came out at 25 µg/mL.

Regarding `Cc1cc(C(=O)NC2CCCC2)c2c(c1)N(Cc1nc(C)c(C)nc1C)CCO2` [B15, N-cyclopentyl-6-methyl-4-((3,5,6-trimethylpyrazin-2-yl)methyl)-3,4-dihydro-2H-benzo[b][1,4]oxazine-8-carboxamide], the MIC was determined as 1.56 µg/mL (≈ 3.95 µM).

With `Cc1nc(C)c(CN2CCOc3c(C(=O)NCC(F)(F)CO)cc(C4CC4)cc32)nc1C` [B30, 6-cyclopropyl-N-(2,2-difluoro-3-hydroxypropyl)-4-((3,5,6-trimethylpyrazin-2-yl)methyl)-3,4-dihydro-2H-benzo[b][1,4]oxazine-8-carboxamide], the MIC is more than 25 µg/mL.

For `Cc1cc(C(=O)NCCO)c2c(c1)N(Cc1nc(C)c(C)nc1C)CCO2` [B13, N-(2-hydroxyethyl)-6-methyl-4-((3,5,6-trimethylpyrazin-2-yl)methyl)-3,4-dihydro-2H-benzo[b][1,4]oxazine-8-carboxamide], the “MIC against H37Ra” value is on record as not below 100 and the MIC was more than 100 µg/mL.

As for `Cc1nc(C)c(CN2CCOc3c(C(=O)NCC(C)(F)F)cc(C4CC4)cc32)nc1C` [B29, 6-cyclopropyl-N-(2,2-difluoropropyl)-4-((3,5,6-trimethylpyrazin-2-yl)methyl)-3,4-dihydro-2H-benzo[b][1,4]oxazine-8-carboxamide], the MIC was more than 25 µg/mL.

On to `Cc1cc(C(=O)NCC(F)F)c2c(c1)N(Cc1nc(C)c(C)nc1C)CCO2` [B11, N-(2,2-difluoroethyl)-6-methyl-4-((3,5,6-trimethylpyrazin-2-yl)methyl)-3,4-dihydro-2H-benzo[b][1,4]oxazine-8-carboxamide], for which the MIC was 0.18 µg/mL (≈ 0.461 µM).

For the compound `Cc1nc(C)c(CN2CCOc3c(C(=O)NCC(F)(F)F)cc(-c4ccccc4)cc32)nc1C` [B33], the MIC is more than 25 µg/mL.

As for `Cc1nc(C)c(CN2CCOc3c(C(=O)NCCCC(F)(F)F)cc(C4CC4)cc32)nc1C` [B31, 6-cyclopropyl-N-(4,4,4-trifluorobutyl)-4-((3,5,6-trimethylpyrazin-2-yl)methyl)-3,4-dihydro-2H-benzo[b][1,4]oxazine-8-carboxamide], the MIC was more than 25 µg/mL.

In the case of “6-bromo-N-(2-fluoroethyl)-4-((2-methoxy-5-(trifluoromethyl)pyridin-3-yl)methyl)-3,4-dihydro-2H-benzo[2, 4]oxazine-8-carboxamide [B3]”, the “MIC against H37Ra” value was found to be 1.56 µg/mL.

With `COc1ncnc(Cn2ccc3c(C(=O)NCC(F)F)cc(C)cc32)c1C` [A9, N-(2,2-difluoroethyl)-1-((6-methoxy-5-methylpyrimidin-4-yl)methyl)-6-methyl-1H-indole-4-carboxamide], the MIC was 0.18 µg/mL (≈ 0.481 µM).

Regarding `COc1cc(CN2CCOc3c(C(=O)NCC(F)(F)F)cc(C4CC4)cc32)cc(OC)c1` [B23, 6-cyclopropyl-4-(3,5-dimethoxybenzyl)-N-(2,2,2-trifluoroethyl)-3,4-dihydro-2H-benzo[b][1,4]oxazine-8-carboxamide], the MIC was more than 25 µg/mL.

Regarding “6-bromo-N-(2,2-difluoroethyl)-4-((2-methoxy-5-(trifluoromethyl)pyridin-3-yl)methyl)-3,4-dihydro-2H-benzo[b][1,4]oxazine-8-carboxamide [B5]”, the “MIC against H37Ra” value was more than 25 µg/mL.

With `COc1c(CN2CCOc3c(C(=O)NCC(F)F)cc(Br)cc32)ccc(F)c1F` [B9, 6-bromo-4-(3,4-difluoro-2-methoxybenzyl)-N-(2,2-difluoroethyl)-3,4-dihydro-2H-benzo[b][1,4]oxazine-8-carboxamide], the MIC was more than 100 µg/mL.

With `Cc1nc(C)c(CN2CCOc3c(C(=O)N[C@H](C)C(F)(F)F)cc(C4CC4)cc32)nc1C` [B27, (R)-6-cyclopropyl-N-(1,1,1-trifluoropropan-2-yl)-4-((3,5,6-trimethylpyrazin-2-yl)methyl)-3,4-dihydro-2H-benzo[b][1,4]oxazine-8-carboxamide], the MIC is more than 25 µg/mL.

Take `Cc1nc(C)c(CN2CCOc3c(C(=O)NCCC(F)(F)F)cc(C4CC4)cc32)nc1C` [B28, 6-cyclopropyl-N-(3,3,3-trifluoropropyl)-4-((3,5,6-trimethylpyrazin-2-yl)methyl)-3,4-dihydro-2H-benzo[b][1,4]oxazine-8-carboxamide]: the MIC was more than 25 µg/mL.

With `Cc1nc(C)c(CN2CCOc3c(C(=O)N[C@@H](C)C(F)(F)F)cc(C4CC4)cc32)nc1C` [B26, (S)-6-cyclopropyl-N-(1,1,1-trifluoropropan-2-yl)-4-((3,5,6-trimethylpyrazin-2-yl)methyl)-3,4-dihydro-2H-benzo[b][1,4]oxazine-8-carboxamide], the MIC was more than 25 µg/mL.
